Experimental data as given in ChEMBL document CHEMBL1137745, “Computational modeling and surface plasmon resonance analyses in the assessment of peptide ligands interacting with fibrin gamma(312-324) epitope” (Eur J Med Chem, 2009).
Peptide text beside a SMILES is read from it.

Columns and labels:
[1] = Binding affinity to gamma (312-324) epitope of human fibrinogen measured at flow rate of 30 ul/min by Biacore X system
[2] = Binding affinity to gamma (312-324) epitope of human fibrinogen measured at flow rate of 5 ul/min by Biacore X system
[3] = Binding affinity to gamma (312-324) epitope of human fibrinogen by Biacore X system

## N=C(N)NCCC[C@H](NC(=O)[C@H](CCC(=O)O)NC(=O)[C@@H](N)CCCCN)C(N)=O (H-Lys-Glu-Arg-NH2)
[1]
  Kd: 21.9 µM
[2]
  Kd: 13 µM
[3]
  Kd: 17.5 µM

## H-RDKDR-NH2
[1]
  Kd: 0.2 µM
[2]
  Kd: 0.3 µM
[3]
  Kd: 0.25 µM

## NCCCC[C@H](NC(=O)[C@H](CCC(=O)O)NC(=O)[C@@H](N)CCCCN)C(N)=O (H-Lys-Glu-Lys-NH2)
[1]
  Kd: 15 µM
[2]
  Kd: 35 µM
[3]
  Kd: 25 µM

## N=C(N)NCCC[C@H](NC(=O)[C@H](CC(=O)O)NC(=O)[C@@H](N)CCCCN)C(N)=O (H-Lys-Asp-Arg-NH2)
[1]
  Kd: 16.2 µM
[2]
  Kd: 52.6 µM
[3]
  Kd: 34.4 µM

## Ac-RDKDR-OH
[1]
  Kd: 16.8 µM
[2]
  Kd: 30.4 µM
[3]
  Kd: 23.6 µM
